Assays:
[1] = biological target: T1, PKC theta (Homo sapiens, UniProt Q04759); assay: PKC assay, fluorescence polarization (Example 2), PKC theta; type: biochemical; settings: 5 μM ATP
T1 construct: purchased Upstate Biotechnologies, Temecula, CA 14-444
Experimental: (§1) The inhibition of PKC activity was measured by monitoring the production of phosphorylated peptide by fluorescence polarization at different concentrations of the inhibitor. Reactions were carried out in 96-well plate format with a total volume of 20 μL containing 20 mM HEPES, pH 7.4, 5 mM MgCl2, 0.2 mM CaCl2, 1 mM DTT, 0.02% Brij-35, 0.1 mg/mL phosphatidylserine, 0.02 mg/mL dioleoyl-sn-glycerol and 5 μM each of ATP and the peptide substrate. Compounds were first diluted serially in DMSO and then transferred to a solution containing the above concentrations of HEPES, MgCl2, CaCl2, DTT, and Brij-35 to yield 5× compound solutions in 2% DMSO, which was then added to the reaction solution. Reactions were initiated by the addition of PKC at a typical concentration as described in Table VI, and then allowed to incubate at room temperature for 20 min. At the end of this time, a combination of quench (EDTA) and detection (peptide tracer and antibody) reagents was added using the protocol of Invitrogen P2748.

[2] = biological target: T2, PKC epsilon (Homo sapiens, UniProt Q02156); assay: PKC assay, fluorescence polarization (Example 2), PKC epsilon; type: biochemical; settings: 5 μM ATP
T2 construct: purchased Upstate Biotechnologies, Temecula, CA 14-518
T2 sequence (Q02156 1-737): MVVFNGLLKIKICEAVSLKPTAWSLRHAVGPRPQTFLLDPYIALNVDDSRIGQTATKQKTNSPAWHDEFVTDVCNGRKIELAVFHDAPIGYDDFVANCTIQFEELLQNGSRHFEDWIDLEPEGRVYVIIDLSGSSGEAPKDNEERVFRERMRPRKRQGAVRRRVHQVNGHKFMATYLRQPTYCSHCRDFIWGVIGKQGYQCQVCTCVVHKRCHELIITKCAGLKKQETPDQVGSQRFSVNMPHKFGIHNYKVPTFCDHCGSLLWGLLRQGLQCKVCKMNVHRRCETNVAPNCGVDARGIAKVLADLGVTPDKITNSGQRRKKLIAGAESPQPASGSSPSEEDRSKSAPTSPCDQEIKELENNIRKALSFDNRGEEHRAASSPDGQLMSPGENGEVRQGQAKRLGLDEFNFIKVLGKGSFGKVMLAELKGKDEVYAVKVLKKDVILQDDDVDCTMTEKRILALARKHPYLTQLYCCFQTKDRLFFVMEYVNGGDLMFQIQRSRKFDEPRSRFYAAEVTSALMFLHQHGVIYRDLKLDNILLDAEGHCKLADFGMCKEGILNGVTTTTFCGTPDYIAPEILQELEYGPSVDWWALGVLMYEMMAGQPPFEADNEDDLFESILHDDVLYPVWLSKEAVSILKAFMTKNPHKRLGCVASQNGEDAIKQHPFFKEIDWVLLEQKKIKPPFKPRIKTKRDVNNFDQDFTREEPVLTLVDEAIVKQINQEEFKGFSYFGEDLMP
Experimental: as §1

[3] = system: Human primary T cells; assay: IL-2 ELISA, Human Primary T Cell, Anti-CD3+CD28+ (Example 3); type: cell-based; settings: anti-CD3+CD28 stimulation
How it was run: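 Human primary T cells, 100,000 per well, were pre-incubated with compound in Yssel's medium for 1 h at 37 °C. The counter-assay used 0.5 ng/ml PMA with 0.1 uM ionomycin final.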

T1 sequence (Q04759 whole entry): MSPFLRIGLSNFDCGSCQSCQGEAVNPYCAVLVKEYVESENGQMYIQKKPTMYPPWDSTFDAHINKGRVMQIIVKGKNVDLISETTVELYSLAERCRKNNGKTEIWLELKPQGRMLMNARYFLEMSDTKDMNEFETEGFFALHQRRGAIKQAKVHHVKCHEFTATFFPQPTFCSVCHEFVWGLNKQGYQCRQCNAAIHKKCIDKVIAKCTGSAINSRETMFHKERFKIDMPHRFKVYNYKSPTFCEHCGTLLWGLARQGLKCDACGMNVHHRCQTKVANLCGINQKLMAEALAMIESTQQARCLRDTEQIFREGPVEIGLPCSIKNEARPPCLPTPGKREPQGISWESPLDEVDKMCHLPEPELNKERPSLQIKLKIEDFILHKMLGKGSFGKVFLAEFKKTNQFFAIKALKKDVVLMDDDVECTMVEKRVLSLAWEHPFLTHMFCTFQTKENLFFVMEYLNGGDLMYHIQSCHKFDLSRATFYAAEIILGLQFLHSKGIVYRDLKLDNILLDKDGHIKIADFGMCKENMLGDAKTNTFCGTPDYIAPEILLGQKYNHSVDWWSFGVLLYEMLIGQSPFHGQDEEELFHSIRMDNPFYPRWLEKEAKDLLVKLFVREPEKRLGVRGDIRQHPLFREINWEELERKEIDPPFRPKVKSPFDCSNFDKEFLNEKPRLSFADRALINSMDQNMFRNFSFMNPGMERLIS

SMILES | IC50 [1] [nM] | IC50 [2] [nM] | IC50 ([3]; Homo sapiens, T-cell, 24 h) [nM] | IC50 ([3]; 24 hours) [nM]
CN1C(C)(C)CC(Nc2nc(Nc3ccc(F)c(C#N)c3)ncc2Cl)CC1(C)C [Compound I-166] | 4.26 | 198 | 281 | –
CN1C(C)(C)CC(Nc2nc(Nc3ccc(-n4cccc4)c(C#N)c3)ncc2Cl)CC1(C)C [Compound I-167] | 3.87 | 197 | 227 | –
Cc1ccc(Nc2ncc(F)c(NC3CC(C)(C)N(C)C(C)(C)C3)n2)cc1-c1ccncc1 [Compound I-187] | 4.92 | 51 | 305 | –
Cc1ccc(Nc2ncc(F)c(NC3CC(C)(C)N(C)C(C)(C)C3)n2)cc1-c1ccoc1 [Compound I-188] | 4.74 | 36.7 | 178 | –
Cc1ccc(Nc2ncc(F)c(NC3CC(C)(C)N(C)C(C)(C)C3)n2)cc1-c1cccnc1 [Compound I-197] | 4.38 | 60.3 | – | 237
CN1C(C)(C)CC(Nc2nc(Nc3ccc(C(F)(F)F)c(N4CCN(S(C)(=O)=O)CC4)c3)ncc2F)CC1(C)C [Compound I-216] | 5.99 | 29 | 174 | –
CCCN1CCN(c2cc(Nc3ncc(F)c(NC4CC(C)(C)N(C)C(C)(C)C4)n3)ccc2C(F)(F)F)CC1 [Compound I-218] | 6.52 | 18.4 | 216 | –
CN1C(C)(C)CC(Nc2nc(Nc3cccc(OC(F)(F)F)c3)ncc2F)CC1(C)C [Compound I-223] | 31.7 | 119 | 184 | –
CN1C(C)(C)CC(Nc2nc(Nc3ccc(N4CCOCC4)c(C(F)(F)F)c3)ncc2F)CC1(C)C [Compound I-224] | 29.1 | 19 | 112 | –
CN1C(C)(C)CC(Nc2nc(Nc3ccc(N4CCCC4)c(C(F)(F)F)c3)ncc2F)CC1(C)C [Compound I-232] | 63.4 | 42 | 894 | –
CCCN1CCN(c2ccc(Nc3ncc(F)c(NC4CC(C)(C)N(C)C(C)(C)C4)n3)cc2C(F)(F)F)CC1 [Compound I-247] | 19.9 | 66.9 | 131 | –
CN1CCN(c2ncc(Nc3ncc(F)c(NC4CC(C)(C)N(C)C(C)(C)C4)n3)cc2C(F)(F)F)CC1 [Compound I-273] | 3.34 | 4.87 | – | 217
CN1C(C)(C)CC(Nc2nc(Nc3ccc(OC(F)F)c(OC(F)F)c3)ncc2F)CC1(C)C [Compound I-344] | 6.54 | 40.7 | 205 | –
COc1cc(Nc2ncc(C(F)(F)F)c(NC3CC(C)(C)N(C)C(C)(C)C3)n2)cc(-n2cnnn2)c1 [Compound I-356] | 7.26 | 43 | 96 | –
CN1C(C)(C)CC(Nc2nc(Nc3cccc(-n4cnnn4)c3)ncc2F)CC1(C)C [Compound I-357] | 5.11 | 7.11 | 67.6 | –
COc1cc(Nc2ncc(C(F)(F)F)c(NC3CC(C)(C)N(C)C(C)(C)C3)n2)cc(OC)c1 [Compound I-363] | 4.17 | 54.8 | 233 | –
COc1cc(Nc2ncc(C#N)c(NC3CC(C)(C)N(C)C(C)(C)C3)n2)cc(OC)c1 [Compound I-364] | 4.1 | 27.8 | 270 | –
COc1cc(Nc2ncc(Br)c(NC3CC(C)(C)N(C)C(C)(C)C3)n2)cc(OC)c1 [Compound I-422] | 10.2 | 165 | 250 | –
CN1C(C)(C)CC(Nc2nc(Nc3ccc(CN4CCOCC4)c(C#N)c3)ncc2F)CC1(C)C [Compound I-450] | 2.5 | 9 | – | 260

Continued by falling IC50 [1], values first:

IC50 [1] [nM] | IC50 [2] [nM] | IC50 ([3]; Homo sapiens, T-cell, 24 h) [nM] | SMILES | IC50 ([3]; 24 hours) [nM]
3.66 | 100 | 172 | COc1ccc(Nc2ncc(F)c(NC3CC(C)(C)N(C)C(C)(C)C3)n2)cc1-n1c(C)ccc1C [Compound I-348] | –
3.5 | 42.9 | 310 | CN1C(C)(C)CC(Nc2nc(Nc3cc(OCC(F)(F)F)cc(OCC(F)(F)F)c3)ncc2F)CC1(C)C [Compound I-378] | –
3.41 | 589 | 161 | COc1ccc(Nc2ncc(C(F)(F)F)c(NC3CC(C)(C)N(C)C(C)(C)C3)n2)cc1OC(F)F [Compound I-350] | –
3.37 | 9.94 | 117 | CCN1CCN(c2ccc(Nc3ncc(F)c(NC4CC(C)(C)N(C)C(C)(C)C4)n3)cc2C(F)(F)F)CC1 [Compound I-246] | –
3.3 | 13 | 80 | CSc1nnnn1-c1cccc(Nc2ncc(F)c(NC3CC(C)(C)NC(C)(C)C3)n2)c1 [Compound I-416] | –
3.2 | 115 | 250 | CCOc1ccc(Nc2ncc(C(N)=O)c(NC3CC(C)(C)N(C)C(C)(C)C3)n2)cc1-n1nnnc1CC [Compound I-420] | –
2.88 | 9.58 | 135 | CN1C(C)(C)CC(Nc2nc(Nc3ccc(N4CCSCC4)c(C#N)c3)ncc2F)CC1(C)C [Compound I-199] | –
2.81 | 15.6 | 159 | COc1cc(Nc2ncc(Cl)c(NC3CC(C)(C)N(C)C(C)(C)C3)n2)cc(OC)c1 [Compound I-340] | –
2.75 | 13.4 | 110 | CCN1CCN(c2ccc(Nc3ncc(F)c(NC4CC(C)(C)N(C)C(C)(C)C4)n3)cc2Cl)CC1 [Compound I-248] | –
2.72 | 32.7 | 120 | Cc1ccc(Nc2ncc(Cl)c(NC3CC(C)(C)N(C)C(C)(C)C3)n2)cc1C#N [Compound I-168] | –
2.06 | 54.6 | 99.1 | COc1ccc(Nc2ncc(F)c(NC3CC(C)(C)N(C)C(C)(C)C3)n2)cc1OC(F)F [Compound I-239] | –
1.71 | 89.6 | 122 | COc1ccc(Nc2ncc(C#N)c(NC3CC(C)(C)N(C)C(C)(C)C3)n2)cc1OC(F)F [Compound I-366] | –
1.3 | 8 | 70 | Cc1ccc(Nc2ncc(F)c(NC3CC(C)(C)NC(C)(C)C3)n2)cc1-n1cnnn1 [Compound I-455] | –
1.27 | 16.8 | 156 | CN1C(C)(C)CC(Nc2nc(Nc3ccc(N4CCOCC4)c(OC(F)F)c3)ncc2F)CC1(C)C [Compound I-235] | –
1.2 | 200 | 350 | CC1(C)CC(Nc2nc(Nc3cc(OCC(F)(F)F)cc(OCC(F)(F)F)c3)ncc2F)CC(C)(C)N1 [Compound I-375] | –
1.11 | 41.9 | 185 | CN1C(C)(C)CC(Nc2nc(Nc3ccc(N4CCCC4)c(C#N)c3)ncc2F)CC1(C)C [Compound I-200] | –
1.1 | 157 | 180 | COc1ccc(Nc2ncc(F)c(NC3CC(C)(C)NC(C)(C)C3)n2)cc1OC(F)F [Compound I-444] | –
0.95 | 1.57 | 31.8 | COc1cc(Nc2ncc(F)c(NC3CC(C)(C)N(C)C(C)(C)C3)n2)cc(-n2cnnn2)c1 [Compound I-342] | –
0.81 | 160 | 243 | CN1CCN(c2ccc(Nc3ncc(C(F)(F)F)c(NC4CC(C)(C)N(C)C(C)(C)C4)n3)cc2C#N)CC1 [Compound I-178] | –
0.62 | 7.34 | 56.6 | COc1cc(Nc2ncc(C#N)c(NC3CC(C)(C)N(C)C(C)(C)C3)n2)cc(-n2nnnc2C)c1 [Compound I-365] | –
0.55 | 53.2 | 45.6 | COc1ccc(Nc2ncc(Cl)c(NC3CC(C)(C)N(C)C(C)(C)C3)n2)cc1OC(F)F [Compound I-341] | –
0.5 | 13 | 60 | CCOc1ccc(Nc2ncc(F)c(NC3CC(C)(C)NC(C)(C)C3)n2)cc1-n1nnnc1CC [Compound I-415] | –
0.4 | 935 | 260 | COc1ccc(Nc2ncc(C#N)c(NC3CC(C)(C)N(C)C(C)(C)C3)n2)cc1-n1c(C)ccc1C [Compound I-376] | –

Source: patent US8993585B2, “Cyclic amine substituted pyrimidinediamines as PKC inhibitors” (Rigel Pharmaceuticals, Inc., priority 2007, dated 2015)
